Results taken from patent publication US10159726B2, “Peptides, combination of peptides and scaffolds for use in immunotherapeutic treatment of various cancers” (Immatics Biotechnologies GmbH, priority 2015, dated 2018).

System: HLA-A*24
Assay: MHC binding assay, UV-ligand exchange with beta2m ELISA, HLA-A*24
Set-up: species or system human
Details: binding to HLA-A*24, UV-ligand exchange, β2m ELISA
From the text: Candidate peptides for T cell based therapies according to the present invention were further tested for their MHC binding capacity (affinity). The individual peptide-MHC complexes were produced by UV-ligand exchange, where a UV-sensitive peptide is cleaved upon UV-irradiation, and exchanged with the peptide of interest as analyzed. Only peptide candidates that can effectively bind and stabilize the peptide-receptive MHC molecules prevent dissociation of the MHC complexes. To determine the yield of the exchange reaction, an ELISA was performed based on the detection of the light chain (β2m) of stabilized MHC complexes. The assay was performed as generally described in Rodenko et al. (Rodenko et al., 2006).
96 well MAXISorp plates (NUNC) were coated over night with 2 ug/ml streptavidin in PBS at room temperature, washed 4× and blocked for 1 h at 37° C. in 2% BSA containing blocking buffer. […] Peptide-MHC monomers of the UV-exchange reaction were diluted 100 fold in blocking buffer. Samples were incubated for 1 h at 37° C., washed four times, incubated with 2 ug/ml HRP conjugated anti-β2m for 1 h at 37° C., washed again and detected with TMB solution that is stopped with […]. Absorption was measured at 450 nm. Candidate peptides that show a high exchange yield (preferably higher than 50%, most preferred higher than 75%) are generally preferred for a generation and production of antibodies or fragments thereof, and/or T cell receptors or fragments thereof, as they show sufficient avidity to the MHC molecules and prevent dissociation of the MHC complexes.

Row | Substance | Peptide exchange (MHC class I binding score, peptide exchange yield)
1 | 182 (AYAQLGYLLF; listed as Homo sapiens) [compound 182] | ++++ (>=75% = ++++)
2 | 184 (IYSVGAFENF; listed as Homo sapiens) [compound 184] | ++++ (>=75% = ++++)
3 | 185 (QYLVHVNDL; listed as Homo sapiens) [compound 185] | ++++ (>=75% = ++++)
4 | 187 (AYAANVHYL; listed as Homo sapiens) [compound 187] | ++++ (>=75% = ++++)
5 | 196 (GYIRGSWQF; listed as Homo sapiens) [compound 196] | ++++ (>=75% = ++++)
6 | 197 (IFTDIFHYL; listed as Homo sapiens) [compound 197] | ++++ (>=75% = ++++)
7 | 206 (NYLDVATFL; listed as Homo sapiens) [compound 206] | ++++ (>=75% = ++++)
8 | 208 (TYLEKIDGF; listed as Homo sapiens) [compound 208] | ++++ (>=75% = ++++)
9 | 209 (AFIETPIPLF; listed as Homo sapiens) [compound 209] | ++++ (>=75% = ++++)
10 | 210 (IYAGVGEFSF; listed as Homo sapiens) [compound 210] | ++++ (>=75% = ++++)
11 | 211 (VFKSEGAYF; listed as Homo sapiens) [compound 211] | ++++ (>=75% = ++++)
12 | 217 (IYISNSIYF; listed as Homo sapiens) [compound 217] | ++++ (>=75% = ++++)
13 | 220 (SYSEIKDFL; listed as Homo sapiens) [compound 220] | ++++ (>=75% = ++++)
14 | 221 (KYIGNLDLL; listed as Homo sapiens) [compound 221] | ++++ (>=75% = ++++)
15 | 223 (TFITQSPLL; listed as Homo sapiens) [compound 223] | ++++ (>=75% = ++++)
16 | 231 (AFADVSVKF; listed as Homo sapiens) [compound 231] | ++++ (>=75% = ++++)
17 | 248 (AFPTFSVQL; listed as Homo sapiens) [compound 248] | ++++ (>=75% = ++++)
18 | 249 (RYHPTTCTI; listed as Homo sapiens) [compound 249] | ++++ (>=75% = ++++)
19 | 252 (AFGQETNVPLNNF; listed as Homo sapiens) [compound 252] | ++++ (>=75% = ++++)
20 | 260 (VYMNVMTRL; listed as Homo sapiens) [compound 260] | ++++ (>=75% = ++++)
21 | 261 (GYIKLINFI; listed as Homo sapiens) [compound 261] | ++++ (>=75% = ++++)
22 | 262 (VYSSQFETI; listed as Homo sapiens) [compound 262] | ++++ (>=75% = ++++)
23 | 264 (LYTETRLQF; listed as Homo sapiens) [compound 264] | ++++ (>=75% = ++++)
24 | 265 (SYLNEAFSF; listed as Homo sapiens) [compound 265] | ++++ (>=75% = ++++)
25 | 271 (RFLMKSYSF; listed as Homo sapiens) [compound 271] | ++++ (>=75% = ++++)
26 | 272 (RYVFPLPYL; listed as Homo sapiens) [compound 272] | ++++ (>=75% = ++++)
27 | 274 (KQLDIANYELF; listed as Homo sapiens) [compound 274] | ++++ (>=75% = ++++)
28 | 275 (KYGTLDVTF; listed as Homo sapiens) [compound 275] | ++++ (>=75% = ++++)
29 | 276 (QYLDVLHAL; listed as Homo sapiens) [compound 276] | ++++ (>=75% = ++++)

More lines, now with the values ahead:

Row | Peptide exchange (MHC class I binding score, peptide exchange yield) | Substance
30 | ++++ (>=75% = ++++) | 280 (TYNPNLQDKL; listed as Homo sapiens) [compound 280]
31 | ++++ (>=75% = ++++) | 286 (SYGTILSHI; listed as Homo sapiens) [compound 286]
32 | ++++ (>=75% = ++++) | 289 (FFHEGQYVF; listed as Homo sapiens) [compound 289]
33 | ++++ (>=75% = ++++) | 290 (KYGDFKLLEF; listed as Homo sapiens) [compound 290]
34 | ++++ (>=75% = ++++) | 292 (FYPQIINTF; listed as Homo sapiens) [compound 292]
35 | ++++ (>=75% = ++++) | 293 (VYPHFSTTNLI; listed as Homo sapiens) [compound 293]
36 | ++++ (>=75% = ++++) | 296 (SYQVIFQHF; listed as Homo sapiens) [compound 296]
37 | ++++ (>=75% = ++++) | 297 (TYIDTRTVF; listed as Homo sapiens) [compound 297]
38 | ++++ (>=75% = ++++) | 298 (AYKSEVVYF; listed as Homo sapiens) [compound 298]
39 | ++++ (>=75% = ++++) | 301 (KFDDVTMLF; listed as Homo sapiens) [compound 301]
40 | ++++ (>=75% = ++++) | 305 (NYENKQYLF; listed as Homo sapiens) [compound 305]
41 | ++++ (>=75% = ++++) | 311 (EYLQNLNHI; listed as Homo sapiens) [compound 311]
42 | ++++ (>=75% = ++++) | 313 (KYTHFIQSF; listed as Homo sapiens) [compound 313]
43 | ++++ (>=75% = ++++) | 319 (KYSDVKNLI; listed as Homo sapiens) [compound 319]
44 | ++++ (>=75% = ++++) | 357 (QFITSTNTF; listed as Homo sapiens) [compound 357]
45 | ++++ (>=75% = ++++) | 379 (VFIAQGYTL; listed as Homo sapiens) [compound 379]

System: CD8+ T cells of healthy HLA-A*24+ donor
Assay: In vitro T-cell priming (immunogenicity) with aAPCs loaded with HLA-A*24 peptide/MHC and anti-CD28, multimer readout
Type: cell-based, human
Details: HLA-A*24 peptides; in vitro priming, multimer readout
Description: In order to obtain information regarding the immunogenicity of the TUMAPs of the present invention, the inventors performed investigations using an in vitro T-cell priming assay based on repeated stimulations of CD8+ T cells with artificial antigen presenting cells (aAPCs) loaded with peptide/MHC complexes and anti-CD28 antibody.
PBMCs and isolated CD8+ lymphocytes were incubated in T-cell medium (TCM) until use consisting of RPMI-Glutamax (Invitrogen, Karlsruhe, Germany) supplemented with 10% heat inactivated human AB serum (PAN-Biotech, Aidenbach, Germany), 100 U/ml Penicillin/100 μg/ml Streptomycin (Cambrex, Cologne, Germany), 1 mM sodium pyruvate (CC Pro, Oberdorla, Germany), 20 μg/ml Gentamycin (Cambrex). 2.5 ng/ml IL-7 (PromoCell, Heidelberg, Germany) and 10 U/ml IL-2 (Novartis Pharma, Nürnberg, Germany) were also added to the TCM at this step.
Generation of pMHC/anti-CD28 coated beads, T-cell stimulations and readout was performed in a highly defined in vitro system using four different pMHC molecules per stimulation condition and 8 different pMHC molecules per readout condition.
The purified co-stimulatory mouse IgG2a anti human CD28 Ab 9.3 (Jung et al., 1987) was chemically biotinylated using Sulfo-N-hydroxysuccinimidobiotin as recommended by the manufacturer (Perbio, Bonn, Germany). Beads used were 5.6 μm diameter streptavidin coated polystyrene particles (Bangs Laboratories, Illinois, USA).
800.000 beads/200 μl were coated in 96-well plates in the presence of 4×12.5 ng different biotin-pMHC, washed and 600 ng biotin anti-CD28 were added subsequently in a volume of 200 μl. Stimulations were initiated in 96-well plates by co-incubating […] CD8+ T cells with 2×10^5 washed coated beads in 200 μl TCM supplemented with 5 ng/ml IL-12 (PromoCell) for 3 days at 37° C. Half of the medium was then exchanged by fresh TCM supplemented with 80 U/ml IL-2 and incubating was continued for 4 days at 37° C. This stimulation cycle was performed for a total of three times. For the pMHC multimer readout using 8 different pMHC molecules per condition, a two-dimensional combinatorial coding approach was used as previously described (Andersen et al., 2012) with minor modifications encompassing coupling to 5 different fluorochromes. Finally, multimeric analyses were performed by staining the cells with Live/dead near IR dye (Invitrogen, Karlsruhe, Germany), CD8-FITC antibody clone SK1 (BD, Heidelberg, Germany) and fluorescent pMHC multimers. For analysis, a BD LSRII SORP cytometer equipped with appropriate lasers and filters was used. Peptide specific cells were calculated as percentage of total CD8+ cells. Evaluation of multimeric analysis was done using the FlowJo software (Tree Star, Oregon, USA). In vitro priming of specific multimer+ CD8+ lymphocytes was detected by comparing to negative control stimulations.
Exemplary flow cytometry results after TUMAP-specific multimer staining for 2 peptides of the invention are shown in FIG. 3 together with corresponding negative controls. Exemplary flow cytometry results after TUMAP-specific multimer staining for 7 peptides of the invention are shown in FIGS. 4 and 5 together with corresponding negative controls.

Row | Substance | in vitro immunogenicity, Wells positive [%]
46 | 98 (VFPRLHNVLF; listed as Homo sapiens) [compound 98] | + (<20% = +)
47 | 103 (NYIPVKNGKQF; listed as Homo sapiens) [compound 103] | + (<20% = +)
48 | 105 (IYNETITDLL; listed as Homo sapiens) [compound 105] | + (<20% = +)
